In the supplement of paper PMC10307832:

How the values were obtained:
Test in all cases: relative viability (nuclei count vs DMSO), 5 days (fraction); higher = more cells survive
Ibrutinib + Luminespib = compound: C=CC(=O)N1CCC[C@@H](n2nc(-c3ccc(Oc4ccccc4)cc3)c3c(N)ncnc32)C1 [Ibrutinib] + CCNC(=O)c1noc(-c2cc(C(C)C)c(O)cc2O)c1-c1ccc(CN2CCOCC2)cc1 [Luminespib] (partner 0.01 µM)
Procedure, shortened: (§1)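 Relative viability divides the nuclei count in treated wells by that in vehicle wells. Lung cancer cell lines were seeded in 1536-well plates, dosed by pin tool the next day, and fixed and stained after 5 days in one step with final 0.05% Triton X-100, 1% formaldehyde and 1 ug/ml Hoechst. Dosing was a single drug or a fixed anchor-drug dose plus five library-drug doses (not always all listed) in √10 steps, and values are medians of duplicate plates imaged at 4×.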

Ibrutinib + Decitabine = compound: C=CC(=O)N1CCC[C@@H](n2nc(-c3ccc(Oc4ccccc4)cc3)c3c(N)ncnc32)C1 [Ibrutinib] + Nc1ncn([C@H]2C[C@H](O)[C@@H](CO)O2)c(=O)n1 [Decitabine] (partner 2 µM)
Procedure, shortened: as §1

Ibrutinib + AZD7762 = compound: C=CC(=O)N1CCC[C@@H](n2nc(-c3ccc(Oc4ccccc4)cc3)c3c(N)ncnc32)C1 [Ibrutinib] + NC(=O)Nc1cc(-c2cccc(F)c2)sc1C(=O)N[C@H]1CCCNC1 [AZD7762] (partner 0.2 µM)
Procedure, shortened: as §1

PAC-1 + Bortezomib = compound: C=CCc1cccc(/C=N/NC(=O)CN2CCN(Cc3ccccc3)CC2)c1O [PAC-1] + CC(C)C[C@H](NC(=O)[C@H](Cc1ccccc1)NC(=O)c1cnccn1)B(O)O [Bortezomib] (partner 0.002 µM)
Procedure, shortened: as §1

Row | Cell Line | relative viability (Ibrutinib + Luminespib; first compound 0.005 µM) | relative viability (Ibrutinib + Luminespib; first compound 0.01581 µM) | relative viability (Ibrutinib + Luminespib; first compound 0.05 µM) | relative viability (Ibrutinib + Luminespib; first compound 0.1581 µM) | relative viability (Ibrutinib + Luminespib; first compound 0.5 µM) | relative viability (Ibrutinib + Decitabine; first compound 0.005 µM) | relative viability (Ibrutinib + Decitabine; first compound 0.01581 µM) | relative viability (Ibrutinib + Decitabine; first compound 0.05 µM) | relative viability (Ibrutinib + Decitabine; first compound 0.1581 µM) | relative viability (Ibrutinib + Decitabine; first compound 0.5 µM) | relative viability (Ibrutinib + AZD7762; first compound 0.005 µM) | relative viability (Ibrutinib + AZD7762; first compound 0.01581 µM) | relative viability (Ibrutinib + AZD7762; first compound 0.05 µM) | relative viability (Ibrutinib + AZD7762; first compound 0.1581 µM) | relative viability (Ibrutinib + AZD7762; first compound 0.5 µM) | relative viability (PAC-1 + Bortezomib; first compound 0.02 µM) | relative viability (PAC-1 + Bortezomib; first compound 0.06325 µM) | relative viability (PAC-1 + Bortezomib; first compound 0.2 µM) | relative viability (PAC-1 + Bortezomib; first compound 2 µM)
1 | 201T | 1.03 | 1.02 | 1.07 | 1.05 | 0.953 | 0.827 | 0.842 | 0.881 | 0.83 | 0.799 | 0.539 | 0.583 | 0.623 | 0.66 | 0.553 | 1.08 | 1.15 | 1.13 | 1.05
2 | A549 | – | – | – | – | – | 0.249 | 0.243 | 0.311 | 0.225 | 0.186 | – | – | – | – | – | – | – | – | –
3 | A-427 | 1.09 | 0.85 | 0.832 | 1.1 | 1.01 | 0.59 | 0.574 | 0.576 | – | 0.549 | 0.745 | 0.734 | 0.757 | – | 0.706 | 1.05 | 1.01 | 0.963 | 0.958
4 | ABC-1 | 0.476 | – | 0.68 | – | 0.562 | 0.973 | 0.929 | – | – | 1.19 | 0.904 | 0.863 | 0.807 | 0.759 | 0.695 | 0.336 | 0.371 | 0.258 | 0.319
5 | BEN | – | 0.292 | 0.318 | 0.307 | 0.462 | 0.454 | 0.817 | 0.687 | 0.521 | 0.646 | 0.473 | 0.61 | 0.637 | 0.506 | 0.697 | 0.742 | 0.77 | 0.797 | 0.725
6 | CAL-12T | 0.417 | 0.14 | 0.416 | 0.276 | 0.302 | – | – | – | – | – | 0.701 | 0.69 | 0.544 | 0.616 | 0.766 | 0.95 | 1.09 | 1.1 | 0.925
7 | COR-L23 | 0.605 | 0.681 | 0.722 | 0.597 | 0.622 | 0.428 | 0.433 | 0.473 | 0.461 | 0.525 | – | – | – | – | – | 1.1 | 0.93 | 0.913 | 0.966
8 | COR-L 105 | 0.765 | 0.802 | 0.744 | 0.883 | 0.599 | 0.632 | 0.534 | 0.431 | 0.689 | 0.403 | – | – | – | – | – | 0.71 | 0.695 | 0.757 | 0.792
9 | Calu-6 | – | – | – | – | – | – | – | – | – | – | – | – | – | – | – | 1.07 | 1.09 | 1 | 1.1
10 | ChaGo-K-1 | 0.586 | 0.409 | 0.53 | 0.655 | 0.556 | 0.503 | 0.484 | 0.544 | 0.524 | 0.54 | 0.85 | 0.798 | 0.894 | 0.833 | 0.838 | 0.941 | 1.1 | 1.16 | 0.88
11 | EBC-1 | – | – | – | – | – | – | – | – | – | – | – | – | – | – | – | 0.513 | 0.544 | 0.633 | 0.53
12 | EKVX | 0.66 | 0.784 | 0.856 | 0.81 | 0.547 | 0.281 | 0.247 | 0.421 | 0.315 | 0.226 | 0.75 | 0.61 | 0.605 | 0.732 | 0.246 | 1.02 | 1.04 | 1.03 | 0.991
13 | EMC-BAC-2 | 1.15 | 1.14 | 1.25 | 1.15 | 1.05 | 0.91 | 0.962 | – | – | 0.994 | 1.19 | 1.1 | 1.1 | – | 1.2 | 1.09 | 1.04 | 1.11 | 1.13
14 | EPLC-272H | 0.485 | 0.433 | 0.211 | 0.313 | 0.211 | – | 0.318 | 0.327 | 0.381 | 0.275 | – | 0.232 | 0.269 | 0.241 | 0.191 | – | 0.895 | 1.02 | 1
15 | H3255 | 1.13 | 0.945 | – | 1.19 | 0.704 | 0.575 | 0.532 | – | 0.636 | 0.261 | 0.695 | 0.767 | 0.61 | 0.754 | 0.418 | 0.876 | 0.778 | 0.861 | 0.729
16 | HARA | 0.975 | 0.748 | 0.548 | 0.746 | 0.324 | 0.5 | 0.486 | 0.376 | 0.468 | 0.264 | 0.495 | 0.449 | 0.602 | 0.318 | 0.408 | 1.08 | 1.12 | 0.853 | 1.11
17 | HCC-15 | 0.362 | 0.278 | 0.488 | 0.308 | 0.243 | 0.711 | 0.57 | 0.661 | 0.581 | 0.662 | 1.33 | 1.25 | 1.19 | 1.25 | 1.4 | 1.03 | 1.11 | 1.01 | 1.04
18 | HCC-44 | 1.11 | 1.02 | 0.977 | – | 1.16 | 1 | 0.96 | 1 | 0.976 | 0.988 | 1.11 | – | – | – | 1.07 | 0.894 | 0.885 | 0.947 | 0.934
19 | HCC-78 | – | – | – | – | – | – | 0.824 | 0.677 | 0.543 | 0.702 | – | 0.732 | 0.251 | 0.452 | 0.592 | 0.387 | 0.496 | 0.434 | 0.483
20 | HCC-366 | – | – | – | – | – | 0.422 | 0.305 | 0.314 | 0.346 | 0.326 | 0.329 | 0.233 | 0.247 | 0.347 | 0.303 | 1.01 | 1.04 | 1.07 | 1.14
21 | HCC-827 | 0.657 | 0.355 | 0.589 | 0.673 | 0.212 | 0.275 | 0.345 | 0.262 | 0.287 | 0.195 | 0.157 | 0.193 | 0.323 | 0.167 | 0.12 | 1.1 | 1.01 | 1.07 | 0.978
